Assays:
[1] = Stability study of misoprostol oil at 25° C. (HPLC content, physical form); assay type: physicochemical
Description: Misoprostol stability was tested over a period of 6 months. The misoprostol tested was the commercially available misoprostol in the form of an oil. Misoprostol was stored at a temperature of 25° C., and misoprostol content measured using HPLC at 0, 2, 4, 8 weeks and 3 and 6 months.

[2] = Comparative stability at 25° C. of dinoprostone bulk drug crystal and dinoprostone in polyurethane hydrogel; assay type: physicochemical
Description: Measurements are taken at 0, 1, 2, 3, and 6 months. The following results are for comparative purposes only and are not intended to form part of the present invention.

Structure (SMILES) | Misoprostol content [1]; 0 [% w/w] | Physical form [1]; 0 | Misoprostol content ([1]; 2 w) [% w/w] | Physical form ([1]; 2 w) | Misoprostol content ([1]; 3 m) [% w/w] | Physical form ([1]; 3 m) | Misoprostol content ([1]; 4 w) [% w/w] | Physical form ([1]; 4 w) | Misoprostol content ([1]; 6 m) [% w/w] | Physical form ([1]; 6 m) | Misoprostol content ([1]; 8 w) [% w/w] | Physical form ([1]; 8 w) | Stability (FIG. 1) ([1]; in the absence of polyurethane hydrogel) | % potency ([2]; 0 months) [% potency] | % potency ([2]; 1 month) [% potency] | % potency ([2]; 3 months) [% potency] | % potency ([2]; 6 months) [% potency]
CCCCC(C)(O)C/C=C/[C@H]1[C@H](O)CC(=O)[C@@H]1CCCCCCC(=O)OC (mixture of isomers) [Misoprostol, (11α,13E)-(±)-11,16-Dihydroxy-16-methyl-9-oxoprost-13-en-1-oic acid methyl ester] | 101.59 | Colourless | 99.61 | Colourless | 93.63 | Straw | 98.59 | Colourless | 57.07 | Yellow | 96.87 | Clear | degrades with time | – | – | – | –
CCCCC[C@H](O)/C=C/[C@H]1[C@H](O)CC(=O)[C@@H]1C/C=C\CCCC(=O)O [Dinoprostone] | – | – | – | – | – | – | – | – | – | – | – | – | – | 100 | 96 | 89 | 75

From US8709482B2, “Stabilised prostaglandin composition” (Ferring B.V., priority 2005, dated 2014)
